Where two headings read alike, the source gives them in different places.
Test system: E. coli (strains ATCC BAA 1427, 1428, 1429, 1430 and 1431)
Format: cell-based
Set-up: key: + = Growth; −1 = Inhibition; − = No Growth
Procedure: A microtiter experiment was conducted to evaluate the pathogen killing effect of the following pathogen killing agents: (1) about 100 μL of non-live-bacteria concentrate having dead bacteria alone (obtained from Example 8), (2) a blend of about 50 μL of non-live-bacteria concentrate having dead bacteria (obtained from Example 8), and about 50 μL of approximately 0.1 M lactic acid, or (3) about 100 μL of approximately 0.1 M lactic acid alone when added into Swanson® chicken broth and a source of pathogens.
About 100 μL chicken broth was added into microtiter wells 1 through 12. The pathogen killing agents were added at about 100 μL into wells 1 and 2. About 100 μL from the mixture of pathogen killing agent and chicken broth were then added to well 3 and then repeated thereafter to create the following dilutions, by volume, until well 11: 1:1, 1:2, 1:4, 1:8, 1:16, 1:32, 1:64, 1:128, 1:256, 1:512, and 1:1024. Next, into all microtiter wells, about 50 μL of a solution containing E. coli (strains ATCC BAA 1427, 1428, 1429, 1430 and 1431) were added such that an approximately 1×10^5 cfu/gram concentration of E. coli in each well was obtained. Well 12 served as the positive control by having no pathogen killing agent added. Microtiter plates containing the wells described above were then placed into an incubator at about 35° C. for either about 24 or about 48 hours. After the appropriate incubation time, microtiter plates were removed from the incubator and the color indicator (about 50 μL iodonitrotetrazolium salt reagent) was added into each well and the microtiter plate placed back into the incubator at about 35° C. for about an additional 4 hours to produce the desired color change reaction. Upon removal from the incubator, the color change and pH in each well were recorded.

Measured: Microtiter well result, E. coli growth

CC(O)C(=O)O (stereo not shown) [Lactic Acid, lactic acid]
−: dilution 1:1, After Incubating at 35° C. for 24 hours | dilution 1:1, After Incubating at 35° C. for 48 hours | dilution 1:2, After Incubating at 35° C. for 24 hours | dilution 1:2, After Incubating at 35° C. for 48 hours | dilution 1:4, After Incubating at 35° C. for 24 hours | dilution 1:8, After Incubating at 35° C. for 24 hours | dilution 1:16, After Incubating at 35° C. for 24 hours | dilution 1:32, After Incubating at 35° C. for 24 hours | dilution 1:64, After Incubating at 35° C. for 24 hours
+: dilution 1:4, After Incubating at 35° C. for 48 hours | dilution 1:8, After Incubating at 35° C. for 48 hours | dilution 1:16, After Incubating at 35° C. for 48 hours | dilution 1:32, After Incubating at 35° C. for 48 hours | dilution 1:64, After Incubating at 35° C. for 48 hours | dilution 1:128, After Incubating at 35° C. for 24 hours | dilution 1:256, After Incubating at 35° C. for 24 hours | dilution 1:256, After Incubating at 35° C. for 48 hours | dilution 1:512, After Incubating at 35° C. for 24 hours | dilution 1:512, After Incubating at 35° C. for 48 hours | dilution 1:1024, After Incubating at 35° C. for 24 hours | dilution 1:1024, After Incubating at 35° C. for 48 hours
−1: dilution 1:128, After Incubating at 35° C. for 48 hours
